Consider 26 molecules from US8658666B2, “Substituted imidazoquinolines and imidazonaphthyridines” (3M Innovative Properties Company, priority 2005, dated 2014).

Molecule `COCc1nc2c(N)nc3cc(CCC(=O)N4CCS(=O)(=O)CC4)ccc3c2n1CC(C)(C)O` [Example 107, 1-[4-Amino-7-[3-(1,1-dioxidothiomorpholin-4-yl)-3-oxopropyl]-2-(methoxymethyl)-1H-imidazo[4,5-c]quinolin-1-yl]-2-methylpropan-2-ol] registered a melting point of 190 to 192 °C.

In turn, `COCc1nc2c(N)nc3cc(CCC(=O)N(C)C)ccc3c2n1CC(C)(C)O` [Example 108, 3-[4-Amino-1-(2-hydroxy-2-methylpropyl)-2-(methoxymethyl)-1H-imidazo[4,5-c]quinolin-7-yl]-N,N-dimethylpropanamide] displayed a melting point of 142 to 145 °C. With `COCc1nc2c(N)nc3cc(CCCNS(C)(=O)=O)ccc3c2n1CC(C)(C)O` [Example 109, N-{3-[4-Amino-1-(2-hydroxy-2-methylpropyl)-2-(methoxymethyl)-1H-imidazo[4,5-c]quinolin-7-yl]propyl}methanesulfonamide], the melting point fell in the range of 205 to 207 °C.

`COCc1nc2c(N)nc3cc(CCC#N)ccc3c2n1CC(C)(C)O` [Example 110, 3-[4-Amino-1-(2-hydroxy-2-methylpropyl)-2-(methoxymethyl)-1H-imidazo[4,5-c]quinolin-7-yl]propanenitrile] returned a melting point of 191 to 193 °C.

`CN(C)C(=O)CCc1ccc2c(c1)nc(N)c1nc(CO)n(CC(C)(C)O)c12` [Example 111, 3-[4-Amino-2-(hydroxymethyl)-1-(2-hydroxy-2-methylpropyl)-1H-imidazo[4,5-c]quinolin-7-yl]-N,N-dimethylpropanamide] displayed a melting point of 228 to 230 °C.

`CC(C)(O)Cn1c(CO)nc2c(N)nc3cc(CCC(=O)N4CCOCC4)ccc3c21` [Example 112, 1-[4-Amino-2-(hydroxymethyl)-7-(3-morpholin-4-yl-3-oxopropyl)-1H-imidazo[4,5-c]quinolin-1-yl]-2-methylpropan-2-ol] had a melting point of 223 to 225 °C. `COCc1nc2c(N)nc3cc(CCC(N)=O)ccc3c2n1CC(C)(C)O` [Example 113, 3-[4-Amino-1-(2-hydroxy-2-methylpropyl)-2-(methoxymethyl)-1H-imidazo[4,5-c]quinolin-7-yl]propanamide]: the melting point fell in the range of 228 to 230 °C. Turning to `CC(C)(O)Cn1c(CO)nc2c(N)nc3cc(CCCNS(C)(=O)=O)ccc3c21` [Example 116, N-{3-[4-Amino-2-(hydroxymethyl)-1-(2-hydroxy-2-methylpropyl)-1H-imidazo[4,5-c]quinolin-7-yl]propyl}methanesulfonamide], the melting point lay within 202 to 205 °C.

Regarding `CCOCc1nc2c(N)nc3ccc(NC(=O)C(C)C)cc3c2n1CC(C)(C)O` [Example 117, N-[4-Amino-2-(ethoxymethyl)-1-(2-hydroxy-2-methylpropyl)-1H-imidazo[4,5-c]quinolin-8-yl]-2-methylpropanamide], the melting point was in the range of 259 to 261 °C.

`CCc1nc2c(N)nc3cc(CCNS(C)(=O)=O)ccc3c2n1CC(C)(C)O` [Example 118, N-{2-[4-Amino-2-ethyl-1-(2-hydroxy-2-methylpropyl)-1H-imidazo[4,5-c]quinolin-7-yl]ethyl}methanesulfonamide] registered a melting point of 149 to 152 °C.

For the molecule `CCc1nc2c(N)nc3cc(CCS(C)(=O)=O)ccc3c2n1CC1CCOCC1` [Example 120], the melting point is 246.5 to 249 °C.

On to `CCc1nc2c(N)nc3cc(CCC#N)ccc3c2n1CC1CCOCC1` [Example 121, 3-[4-Amino-2-ethyl-1-(tetrahydro-2H-pyran-4-ylmethyl)-1H-imidazo[4,5-c]quinolin-7-yl]propanenitrile], for which the melting point is 273 to 275 °C. Under `CCc1nc2c(N)nc3cc(CCC(N)=O)ccc3c2n1CC1CCOCC1` [Example 122, 3-[4-Amino-2-ethyl-1-(tetrahydro-2H-pyran-4-ylmethyl)-1H-imidazo[4,5-c]quinolin-7-yl]propanamide] stands 197 to 199 °C; under `CCc1nc2c(N)nc3cc(CCCN)ccc3c2n1CC1CCOCC1` [Example 123, 7-(3-Aminopropyl)-2-ethyl-1-(tetrahydro-2H-pyran-4-ylmethyl)-1H-imidazo[4,5-c]quinolin-4-amine], 217 to 220 °C; under `CCc1nc2c(N)nc3cc(CCCNS(C)(=O)=O)ccc3c2n1CC1CCOCC1` [Example 124, N-{3-[4-Amino-2-ethyl-1-(tetrahydro-2H-pyran-4-ylmethyl)-1H-imidazo[4,5-c]quinolin-7-yl]propyl}methanesulfonamide], 168 to 170 °C. Under `CCc1nc2c(N)nc3cc(CCCNC(C)=O)ccc3c2n1CC1CCOCC1` [Example 125, N-{3-[4-amino-2-ethyl-1-(tetrahydro-2H-pyran-4-ylmethyl)-1H-imidazo[4,5-c]quinolin-7-yl]propyl}acetamide] stands 209 to 211 °C.

For `CCc1nc2c(N)nc3cc(CCCNC(=O)NC(C)C)ccc3c2n1CC1CCOCC1` [Example 126, N-{3-[4-amino-2-ethyl-1-(tetrahydro-2H-pyran-4-ylmethyl)-1H-imidazo[4,5-c]quinolin-7-yl]propyl}-N′-isopropylurea], the melting point lay within 213 to 216 °C. The figure for `COc1cccc(CNCc2ccc3nc(N)c4ncn(CC(C)C)c4c3c2)c1` [Example 127, 1-Isobutyl-8-{[(3-methoxybenzyl)amino]methyl}-1H-imidazo[4,5-c]quinolin-4-amine] is 125 to 126 °C; for `CCc1nc2c(N)nc3cc(/C=C/C(=O)N(C)C)ccc3c2n1CC1CCOCC1` [Example 128, (2E)-3-[4-Amino-2-ethyl-1-(tetrahydro-2H-pyran-4-ylmethyl)-1H-imidazo[4,5-c]quinolin-7-yl]-N,N-dimethylprop-2-enamide] it is over 260 °C. Under `CCc1nc2c(N)nc3cc(CCC(=O)N(C)C)ccc3c2n1CC1CCOCC1` [Example 129, 3-[4-Amino-2-ethyl-1-(tetrahydro-2H-pyran-4-ylmethyl)-1H-imidazo[4,5-c]quinolin-7-yl]-N,N-dimethylpropanamide] stands 219 to 220 °C. Consider `CCc1nc2c(N)nc3cc(/C=C/C(=O)N4CCOCC4)ccc3c2n1CC1CCOCC1` [Example 130, 2-Ethyl-7-[(1E)-3-morpholin-4-yl-3-oxoprop-1-enyl]-1-(tetrahydro-2H-pyran-4-ylmethyl)-1H-imidazo[4,5-c]quinolin-4-amine], for which the melting point was over 260 °C. Under `CCOC(=O)/C=C/c1ccc2c(c1)nc(N)c1nc(CC)n(CC3CCOCC3)c12` [Example 131, Ethyl (2E)-3-[4-amino-2-ethyl-1-(tetrahydro-2H-pyran-4-ylmethyl)-1H-imidazo[4,5-c]quinolin-7-yl]prop-2-enoate] stands 209 to 210 °C; under `CCOC(=O)CCc1ccc2c(c1)nc(N)c1nc(CC)n(CC3CCOCC3)c12` [Example 132, Ethyl 3-[4-amino-2-ethyl-1-(tetrahydro-2H-pyran-4-ylmethyl)-1H-imidazo[4,5-c]quinolin-7-yl]propanoate], 172 to 173 °C. The figure for `CCOCc1nc2c(N)nc3cc(C=O)ccc3c2n1CC(C)(C)O` [Example 133, 4-Amino-2-(ethoxymethyl)-1-(2-hydroxy-2-methylpropyl)-1H-imidazo[4,5-c]quinoline-7-carbaldehyde] is 203 to 205 °C. The figure for `CCOCc1nc2c(N)nc3cc(CCCO)ccc3c2n1CC(C)(C)O` [Example 134, 3-[4-Amino-2-(ethoxymethyl)-1-(2-hydroxy-2-methylpropyl)-1H-imidazo[4,5-c]quinolin-7-yl]propan-1-ol] is 177 to 178 °C. Consider `CCOCc1nc2c(N)nc3cc(CCCN4CCOCC4)ccc3c2n1CC(C)(C)O` [Example 135, 1-[4-Amino-2-(ethoxymethyl)-7-(3-morpholin-4-ylpropyl)-1H-imidazo[4,5-c]quinolin-1-yl]-2-methylpropan-2-ol], for which the melting point was in the range of 132 to 133 °C.

A word on the melting point: it is the temperature of the solid-liquid transition.
